US20220112187A1, “PYRAZOLOPYRIDINE AMINE COMPOUNDS FOR THE TREATMENT OF AUTOIMMUNE DISEASE” (Hoffmann-La Roche Inc., priority 2018, published 2022)
pIC50: −log10 of the molar value.

Target: T1, human TLR7 (Homo sapiens, UniProt Q9NYK1)
T1 sequence (Q9NYK1 27-1049): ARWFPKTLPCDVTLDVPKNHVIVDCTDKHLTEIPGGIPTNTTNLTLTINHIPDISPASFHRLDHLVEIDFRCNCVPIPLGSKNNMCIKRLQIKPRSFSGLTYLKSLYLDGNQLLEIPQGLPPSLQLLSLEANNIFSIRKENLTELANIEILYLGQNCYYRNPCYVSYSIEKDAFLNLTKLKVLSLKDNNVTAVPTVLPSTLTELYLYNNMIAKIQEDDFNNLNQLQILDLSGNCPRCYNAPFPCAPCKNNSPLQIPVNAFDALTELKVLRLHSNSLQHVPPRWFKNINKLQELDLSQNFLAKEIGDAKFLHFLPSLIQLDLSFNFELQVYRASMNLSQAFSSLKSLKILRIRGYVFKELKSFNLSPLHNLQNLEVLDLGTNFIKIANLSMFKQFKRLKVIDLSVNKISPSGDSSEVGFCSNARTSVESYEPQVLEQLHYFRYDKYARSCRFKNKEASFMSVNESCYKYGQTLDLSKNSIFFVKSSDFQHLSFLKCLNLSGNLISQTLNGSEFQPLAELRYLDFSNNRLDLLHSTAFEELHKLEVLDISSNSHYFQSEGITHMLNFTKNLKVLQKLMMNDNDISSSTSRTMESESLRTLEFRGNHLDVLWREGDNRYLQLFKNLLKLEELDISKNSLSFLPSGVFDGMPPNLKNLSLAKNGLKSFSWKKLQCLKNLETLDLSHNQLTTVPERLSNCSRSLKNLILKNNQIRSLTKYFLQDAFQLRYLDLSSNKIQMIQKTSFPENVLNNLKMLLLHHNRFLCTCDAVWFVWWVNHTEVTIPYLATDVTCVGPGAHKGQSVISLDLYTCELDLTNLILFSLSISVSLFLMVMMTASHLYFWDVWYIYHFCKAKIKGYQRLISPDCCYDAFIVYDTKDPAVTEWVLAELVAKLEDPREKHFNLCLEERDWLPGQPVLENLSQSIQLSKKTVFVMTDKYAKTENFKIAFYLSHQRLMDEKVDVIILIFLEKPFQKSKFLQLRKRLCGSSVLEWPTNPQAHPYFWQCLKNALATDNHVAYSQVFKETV
Assay: HEK293-Blue-hTLR-7 cells assay (SEAP reporter, R848 stimulation)
Type: cell-based
Conditions: HEK293-Blue-hTLR7 cells, R848 ligand, 20 hrs incubation
Outline: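 Antagonist mode: HEK293-Blue-hTLR7 cells (250,000–450,000 cells/mL) incubated 20 h at 37° C. with serially diluted compound (1% DMSO) and R848 (20 uM stock). NF-κB/AP-1-driven SEAP in supernatant read with QUANTI-Blue after 2 h at 37° C., absorbance 620–655 nm.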

`C[C@@H]1CN(c2ccc(C#N)n3nccc23)C[C@H](CN2CCN(C3CCNCC3)CC2Cc2ccccc2)O1` (stereo partly drawn) [Example 77, 4-[(2S,6R)-2-[[2-benzyl-4-(4-piperidyl)piperazin-1-yl]methyl]-6-methyl-morpholin-4-yl]pyrazolo[1,5-a]pyridine-7-carbonitrile] gave a pIC50 of 6.80.
